Assay [1] addresses T1, HmuY (Porphyromonas gingivalis, UniProt A2I2W2, H134M). Kind of assay: biochemical.
Assay [2] has as its target T1, HmuY. The assay is described as follows: biochemical. The source holds these as a separate data set.

Like-named read-outs stand apart in the source and are kept apart here.

T1 sequence (A2I2W2 26-216 H134M): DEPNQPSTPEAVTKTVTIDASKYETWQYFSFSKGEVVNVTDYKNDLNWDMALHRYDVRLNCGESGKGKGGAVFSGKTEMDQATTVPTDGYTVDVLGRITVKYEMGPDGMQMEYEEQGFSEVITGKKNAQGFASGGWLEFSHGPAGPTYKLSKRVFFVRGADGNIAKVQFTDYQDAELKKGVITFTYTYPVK

Consider `C=CC1=C(C)C2=Cc3c(C=C)c(C)c4[n]3[Fe]([Cl])[n]3c(c(C)c(CCC(=O)O)c3=CC3=NC(=C4)C(C)=C3CCC(=O)O)=CC1=N2` [Fe(III)heme], for which the Kd (in general, the concentration at which binding is half-saturated) on HmuY [1] stood at 12 µM.
As to `C=CC1=C(C)C2=Cc3c(C=C)c(C)c4[n]3[Fe][n]3c(c(C)c(CCC(=O)O)c3=CC3=NC(=C4)C(C)=C3CCC(=O)O)=CC1=N2` [Fe(II)heme], the affinity on HmuY [2], expressed as Kd, was 0.011 µM. In other words, the double-digit nanomolar range.

The values above are taken from paper PMC8911585, “Unique Properties of Heme Binding of the Porphyromonas gingivalis HmuY Hemophore-like Protein Result from the Evolutionary Adaptation of the Protein Structure” (Molecules, 2022).
